PMC12445744, “Molecular docking to homology models of human and Trypanosoma brucei ERK8 that identified ortholog-specific inhibitors” (PLOS Neglected Tropical Diseases, 2025)
“And” between values parts separate entries of the source, which are not always exact repeats. Equal values may be shown once.

Target: T1, TbERK8 (Trypanosoma brucei brucei, UniProt Q38B88)
T1 sequence (Q38B88 1-442): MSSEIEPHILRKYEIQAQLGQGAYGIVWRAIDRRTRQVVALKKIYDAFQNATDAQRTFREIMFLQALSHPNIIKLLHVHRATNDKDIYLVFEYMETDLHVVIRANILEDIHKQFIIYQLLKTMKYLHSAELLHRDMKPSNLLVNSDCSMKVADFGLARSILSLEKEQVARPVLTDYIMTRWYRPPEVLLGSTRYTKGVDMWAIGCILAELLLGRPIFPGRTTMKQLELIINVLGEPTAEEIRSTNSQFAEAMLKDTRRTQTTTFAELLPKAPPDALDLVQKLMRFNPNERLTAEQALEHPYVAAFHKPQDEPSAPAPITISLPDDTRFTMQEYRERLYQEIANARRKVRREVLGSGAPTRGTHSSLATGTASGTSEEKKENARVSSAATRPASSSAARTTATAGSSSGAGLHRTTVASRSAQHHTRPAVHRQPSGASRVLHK
Test: Luciferase-based kinase inhibition assay (ATP luminescence), GST-tagged TbERK8 with MBP substrate
Type: biochemical
Design: raw luminescence, TbERK8: unit of the concentration uncertain
Conditions: for raw luminescence, TbERK8: replicate wells; for raw luminescence, TbERK8 / Luminescence Raw (Kinase-Glo): listed as Sil; for Luminescence Raw (Kinase-Glo): TbERK8

CCCc1nn(C)c2c(=O)[nH]c(-c3cc(S(=O)(=O)N4CCN(C)CC4)ccc3OCC)nc12 [Sildenafil]
IC50: 9 mM | raw luminescence, TbERK8 (0.00015 (unit uncertain) compound, sheet ADP_ATP_glo081724 (3)): 192.26 RLU and 196.784 RLU and 144.761 RLU | raw luminescence, TbERK8 (0.00015 (unit uncertain) compound, sheet Kinase_glo 08142024 (2)): 642.503 RLU and 676.319 RLU and 570.644 RLU | raw luminescence, TbERK8 (0.00015 (unit uncertain) compound, sheet Kinase_glo_080924_IFPS (2)): 1471.05 RLU and 1414.9 RLU and 1313.84 RLU | raw luminescence, TbERK8 (0.00061 (unit uncertain) compound, sheet ADP_ATP_glo081724 (3)): 122.142 RLU and 174.165 RLU and 104.047 RLU | raw luminescence, TbERK8 (0.00061 (unit uncertain) compound, sheet Kinase_glo 08142024 (2)): 718.589 RLU and 748.177 RLU and 712.248 RLU | raw luminescence, TbERK8 (0.00061 (unit uncertain) compound, sheet Kinase_glo_080924_IFPS (2)): 788.303 RLU and 923.056 RLU and 783.811 RLU | raw luminescence, TbERK8 (0.00244 (unit uncertain) compound, sheet ADP_ATP_glo081724 (3)): 246.545 RLU and 205.831 RLU and 226.188 RLU | raw luminescence, TbERK8 (0.00244 (unit uncertain) compound, sheet Kinase_glo 08142024 (2)): 701.681 RLU and 748.177 RLU and 629.822 RLU | raw luminescence, TbERK8 (0.00244 (unit uncertain) compound, sheet Kinase_glo_080924_IFPS (2)): 458.159 RLU and 390.783 RLU and 375.062 RLU | raw luminescence, TbERK8 (0.00977 (unit uncertain) compound, sheet ADP_ATP_glo081724 (3)): 235.236 RLU and 187.736 RLU and 135.713 RLU | raw luminescence, TbERK8 (0.00977 (unit uncertain) compound, sheet Kinase_glo 08142024 (2)): 820.036 RLU and 841.171 RLU and 775.653 RLU | raw luminescence, TbERK8 (0.00977 (unit uncertain) compound, sheet Kinase_glo_080924_IFPS (2)): 660.288 RLU and 590.666 RLU and 547.994 RLU | raw luminescence, TbERK8 (0.03906 (unit uncertain) compound, sheet ADP_ATP_glo081724 (3)): 210.355 RLU and 205.831 RLU and 187.736 RLU | raw luminescence, TbERK8 (0.03906 (unit uncertain) compound, sheet Kinase_glo 08142024 (2)): 526.26 RLU and 661.524 RLU and 672.092 RLU | raw luminescence, TbERK8 (0.03906 (unit uncertain) compound, sheet Kinase_glo_080924_IFPS (2)): 981.449 RLU and 954.498 RLU and 819.745 RLU | raw luminescence, TbERK8 (0.15625 (unit uncertain) compound, sheet ADP_ATP_glo081724 (3)): 341.544 RLU and 352.854 RLU and 287.259 RLU | raw luminescence, TbERK8 (0.15625 (unit uncertain) compound, sheet Kinase_glo 08142024 (2)): 849.625 RLU and 830.604 RLU and 743.951 RLU | raw luminescence, TbERK8 (0.15625 (unit uncertain) compound, sheet Kinase_glo_080924_IFPS (2)): 1302.61 RLU and 956.744 RLU and 1116.2 RLU | raw luminescence, TbERK8 (0.62500 (unit uncertain) compound, sheet ADP_ATP_glo081724 (3)): 653.684 RLU and 678.565 RLU and 508.924 RLU | raw luminescence, TbERK8 (0.62500 (unit uncertain) compound, sheet Kinase_glo 08142024 (2)): 1502.69 RLU and 1635.85 RLU and 1447.74 RLU | raw luminescence, TbERK8 (0.62500 (unit uncertain) compound, sheet Kinase_glo_080924_IFPS (2)): 10771.2 RLU and 11665.1 RLU and 9012.71 RLU | raw luminescence, TbERK8 (2.50000 (unit uncertain) compound, sheet ADP_ATP_glo081724 (3)): 9775.86 RLU and 9642.41 RLU and 4501.15 RLU | raw luminescence, TbERK8 (2.50000 (unit uncertain) compound, sheet Kinase_glo 08142024 (2)): 30745 RLU and 32114.6 RLU and 32366.1 RLU | raw luminescence, TbERK8 (2.50000 (unit uncertain) compound, sheet Kinase_glo_080924_IFPS (2)): 19880.5 RLU and 19849.1 RLU and 15795.3 RLU | raw luminescence, TbERK8 (10.00000 (unit uncertain) compound, sheet ADP_ATP_glo081724 (3)): 17380.3 RLU and 17721.9 RLU and 17968.4 RLU | raw luminescence, TbERK8 (10.00000 (unit uncertain) compound, sheet Kinase_glo 08142024 (2)): 40177.6 RLU (2×) and 40048.6 RLU | raw luminescence, TbERK8 (10.00000 (unit uncertain) compound, sheet Kinase_glo_080924_IFPS (2), signal = ATP left): 19548.1 RLU and 21185.4 RLU and 21443.6 RLU | Luminescence Raw (Kinase-Glo) (inhibitor 0.00976562 mM, sheet Sil_Pred3, read 3): 36049.4 and 37274.6 and 36862.3 | Luminescence Raw (Kinase-Glo) (inhibitor 0.0195312 mM, sheet Sil_Pred3, read 3): 31279.7 and 32797.7 and 32247.2 | Luminescence Raw (Kinase-Glo) (inhibitor 0.0390625 mM, sheet Sil_Pred3, read 3): 27320.5 and 29281.3 and 28655.8 | Luminescence Raw (Kinase-Glo) (inhibitor 0.078125 mM, sheet Sil_Pred3, read 3): 38799.7 and 40144.4 and 45260.9 | Luminescence Raw (Kinase-Glo) (inhibitor 0.15625 mM, sheet Sil_Pred3, read 3): 29028.3 and 32258.9 and 32301.1 | Luminescence Raw (Kinase-Glo) (inhibitor 0.3125 mM, sheet Sil_Pred3, read 3): 27939 and 30286.4 and 29686.6 | Luminescence Raw (Kinase-Glo) (inhibitor 0.625 mM, sheet Sil_Pred3, read 3): 36091.6 and 38406.1 and 37640.1 | Luminescence Raw (Kinase-Glo) (inhibitor 0.00976562, sheet Sil_Pred1, read 1): 40167.3 and 42010.2 and 38672.9 | Luminescence Raw (Kinase-Glo) (inhibitor 0.00976562, sheet Sil_Pred2, read 2): 37219 and 38747.1 and 37019 | Luminescence Raw (Kinase-Glo) (inhibitor 0.0195312, sheet Sil_Pred1, read 1): 34760.2 and 36412.8 and 34705.2 | Luminescence Raw (Kinase-Glo) (inhibitor 0.0195312, sheet Sil_Pred2, read 2): 32386.1 and 33904.8 and 32825.7 | Luminescence Raw (Kinase-Glo) (inhibitor 0.0390625, sheet Sil_Pred1, read 1): 30029.2 and 32598.7 and 32204.5 | Luminescence Raw (Kinase-Glo) (inhibitor 0.0390625, sheet Sil_Pred2, read 2): 28304.4 and 29974.3 and 30192.9 | Luminescence Raw (Kinase-Glo) (inhibitor 0.078125, sheet Sil_Pred1, read 1): 43786.6 and 44925.8 and 48645.9 | Luminescence Raw (Kinase-Glo) (inhibitor 0.078125, sheet Sil_Pred2, read 2): 39158.7 and 41749.6 and 45619.7 | Luminescence Raw (Kinase-Glo) (inhibitor 0.15625, sheet Sil_Pred1, read 1): 32447.4 and 35952.1 and 35828.3 | Luminescence Raw (Kinase-Glo) (inhibitor 0.15625, sheet Sil_Pred2, read 2): 29879 and 33446.7 and 32672.2 | Luminescence Raw (Kinase-Glo) (inhibitor 0.3125, sheet Sil_Pred1, read 1): 31858.4 and 33536.2 and 32552.9 | Luminescence Raw (Kinase-Glo) (inhibitor 0.3125, sheet Sil_Pred2, read 2): 29706.8 and 31355.8 and 30890.7 | Luminescence Raw (Kinase-Glo) (inhibitor 0.625, sheet Sil_Pred1, read 1): 41361.5 and 43495.5 and 43241.1 | Luminescence Raw (Kinase-Glo) (inhibitor 0.625, sheet Sil_Pred2, read 2): 37112 and 39789 and 39512.2
